# Measurements published in PMC12344683, “N-alkyl and N-benzyl indoles are anti-SARS-CoV-2 agents and nsp13 inhibitors” (Journal of Enzyme Inhibition and Medicinal Chemistry, 2025).
# Read-outs that look alike come from different tables or passages of the source.
# Tested on: SARS-CoV-2
# Experiment: microbe, parasite or virus in culture
# Type: cell-based, SARS-CoV-2 variant omicron XBB.1.16.11
# Conditions: for antiviral activity against SARS-CoV-2 (in words): up to 50 μM
# [1] = Severe acute respiratory syndrome coronavirus 2, Vero C1008, read-out: EC50, concentration required to reduce the SARS-CoV-2 replication in Vero cells by 50%
# [2] = Severe acute respiratory syndrome coronavirus 2, plaque assay, SARS-CoV-2 in Vero cells, read-out: 95% confidence interval (CI) of EC50
SMILES,EC50 [1],antiviral activity against SARS-CoV-2 (in words) (plaque assay),EC50 [2]
CCOC(=O)/C(O)=C/C(=O)/C=C/c1cn(Cc2ccc(OC(F)(F)F)cc2)c2ccccc12 [6e],50 µM,low activity,
O=C(/C=C(\O)C(=O)O)/C=C/c1cn(Cc2ccc(OC(F)(F)F)cc2)c2ccccc12 [5e],9.4 ± 2.26 µM,,7.36 to 11.9 µM
"CCOC(=O)/C(O)=C/C(=O)c1cn(Cc2ccc(F)cc2)c2ccccc12 [8d, Ethyl (Z)-4-(1-(4-fluorobenzyl)-1H-indol-3-yl)-2-hydroxy-4-oxobut-2-enoate]",> 50 µM,not showed any antiviral activity up to the maximum concentration tested,
"N#Cc1ccc(Cn2cc(/C=C/C(=O)/C=C(\O)C(=O)O)c3ccccc32)cc1 [5g, (2Z,5E)-6-(1-(4-cyanobenzyl)-1H-indol-3-yl)-2-hydroxy-4-oxohexa-2,5-dienoic acid]",14.5 ± 4.2 µM,,10.9 to 19.3 µM
"O=C(/C=C(\O)C(=O)O)/C=C/c1cn(Cc2ccc(F)cc2)c2ccc(Cl)cc12 [5i, (2Z,5E)-6-(5-chloro-1-(4-fluorobenzyl)-1H-indol-3-yl)-2-hydroxy-4-oxohexa-2,5-dienoic acid]",6.77 ± 1.17 µM,,5.69 to 8.03 µM
CC(C)c1ccc(Cn2cc(/C=C/C(=O)/C=C(\O)C(=O)O)c3ccccc32)cc1 [5c],9.41 ± 0.91 µM,,8.54 to 10.4 µM
"CC(C)=Cn1cc(/C=C/C(=O)/C=C(\O)C(=O)O)c2ccccc21 [9c, (2Z,5E)-2-hydroxy-6-(1-(2-methylprop-1-en-1-yl)-1H-indol-3-yl)-4-oxohexa-2,5-dienoic acid]",4.23 ± 0.96 µM,,3.33 to 5.26 µM
